According to patent US20060233705A1, “Diagnosis by determination of hyperactivity or increased expression of members of cell signaling pathways” (priority 2005, published 2006):

Assays:
[1] = tested on: lung tumors; conditions: 2.5 mg/100 g s.c. three times weekly for 20 weeks; within 52 weeks after start of injections; cited from earlier work
[2] = tested on: human pulmonary adenocarcinoma cells; conditions: in vitro; by increasing the release of arachidonic acid; cited from earlier work
[3] = tested on: pulmonary adenocarcinomas; conditions: animal model; cited from earlier work
[4] = tested on: members of the MAPK and GPCR pathways; test: ELISA of venous blood for MAPK and GPCR pathway members in NNK-treated hamsters; format: in vivo, Syrian Golden Hamsters; conditions: blood one week after NNK 2.5 mg/100 g s.c. three times weekly for 10 weeks
Description: Syrian Golden Hamsters are injected subcutaneously with the tobacco-specific carcinogenic nitrosamine 4-(methylnitrosamino)-1-(3-pyridyl)-1-butanone (NNK) at a dosage of 2.5 mg/100 g bodyweight three times weekly for 10 weeks. […] Control hamsters are untreated. One week after the final NNK injection, approximately 250 microliters of venous blood is collected from the hamsters.
Antibodies that bind to phosphorylated or unphosphorylated members of the MAPK and GPCR pathways, including Raf, Ras, MEK, ERK, adenylate cyclase, cAMP, PKA, CREB, and PKC are purchased from commercial sources, including EMD Biosciences (San Diego, Calif.) (Raf, ERK), BD Biosciences Pharmingen (San Diego, Calif.) (Raf), Cell Signaling Technology (Beverly, Mass.) (Ras), Abgent (San Diego, Calif.) ([…]), GenWay Biotech Inc. (San Diego, Calif.) (adenylate cyclase), Abcam, Inc. (Cambridge, Mass.) (cAMP, PKA, PKC, Raf), and Upstate (Charlottesville, Va.) (CREB).
Paired antibodies for each of the above member of the MAPK and GPCR pathways are utilized as coating antibody and detection antibody in formulating an ELISA (Enzyme-Linked Immunosorbent Assay) for each of the members. […]
Briefly, a first antibody that binds to a member of the MAPK or GPCR pathway is bound to the wells on a microtiter plate. […] Then a stop solution is added to the wells and the color intensity of each well is measured using an ELISA plate reader.

Row | Structure (SMILES) | lung tumors developed [1] | proliferation of human pulmonary adenocarcinoma cells [2] | induction of pulmonary adenocarcinomas [3] | ELISA color intensity versus control hamsters [4]
1 | CN(CCCC(=O)c1cccnc1)N=O [NNK, 4-(methylnitrosamino)-1-(3-pyridyl)-1-butanone] | about 10 lung tumors/hamster | stimulate the proliferation | reproducibly induced pulmonary adenocarcinomas | significantly higher
2 | CC(C)NCC(O)c1ccc(O)c(O)c1 (centres unmarked) [isoproterenol] | – | stimulate the proliferation | – | –
